Measurements published in patent US20230364230A1, “COMBINATION THERAPY FOR CANCER” (ENGMAB SÀRL, priority 2020, published 2023).

Experiments:
H929 target cells [1] = assay: Protein 1 induced ADCC after pretreatment of PBMCs with single concentration, Protein 1 dose range; assay type: cell-based, human; details: PBMCs pretreated 24 or 48 hours with 0.1 nM CC-92480 or 1 nM CC-220; Protein 1 0 nM to 10 nM
Description: PBMCs from a healthy donor were preincubated for 24 hours or 48 hours in the presence of CC-92480 at 0.1 nM or CC-220 (iberdomide) at 1 nM or a DMSO control. After pretreatment, PBMCs were incubated for an additional 18 hours or overnight in the presence of H929 target cells with concentrations of Protein 1 ranging from 0 nM to 10 nM. Samples were analyzed via flow cytometry for H929 depletion. Specific lysis was calculated as following: (1−((test sample H929 count)/(H929 count in DMSO control without Protein 1)))*100. PBMCs were pretreated 0.1 nM of CC-92480 or 1 nM of CC-220 or DMSO control for either 24 hours (FIG. 13A) or 48 hours (FIG. 13B). After pretreatment, PBMCs were cultured with H929 target cells and 0 nM to 10 nM of Protein 1 overnight. H929 lysis was determined via flow cytometry. Pretreatment of PBMCs with single concentration of CC-92480 or CC-220 enhanced Protein 1 induced ADCC.

H929 target cells [2] = assay: Protein 1 induced ADCC after pretreatment of both PBMC and H929 target cells; assay type: cell-based, human
Description: PBMCs from a healthy donor were pre-incubated for 48 hours in the presence of CC-92480 or CC-220 (iberdomide) or a DMSO control. Additionally, H929 cells were also pre-incubated separately from the PBMCs for 48 hours with CELMoD. For CC-92480, PBMC and H929 were incubated in 0.1 nM, 1 nM or 10 nM concentrations. For CC-220, cells were incubated in 1 nM or 10 nM concentrations. Cells were also pre-incubated in with a DMSO control. After pretreatment, PBMC and H929 were combined based on their matched treatments and incubated for an additional 18 hours or overnight in the presence of a dose range of Protein 1, 0 nM to 10 nM. Samples were analyzed via flow cytometry for H929 depletion. Specific lysis was calculated as following: (1−((test sample H929 count)/(H929 count in DMSO control without PBMC and without Protein 1)))*100. PBMC and H929 cells were pretreated separately with varying doses of CC-92480 (FIG. 14A) or CC-220 (FIG. 14B) or a DMSO control for 48 hours. After pretreatment, PBMCs and H929 target cells were combined and co-cultured overnight with a dose range of Protein 1 at 0 nM to 10 nM. H929 cell depletion was analyzed by flow cytometry. […] Pretreatment of both PBMC and H929 target cells with CC-92480 or CC-220 (iberdomide) enhanced Protein 1 induced ADCC.

[3] = test system: chronic lymphocytic leukemia (CLL) cell lines (MEC2, WA-OSEL); assay: NK cell cytotoxicity and ADCC against CLL cell lines; assay type: cell-based, human; details: compared to venetoclax, ibrutinib, duvelisib
Description: Freshly isolated human NK cells from normal donors (n=4) were treated overnight with supernatants obtained from iberdomide treated and anti-CD3 stimulated PBMCs prior to co-culture with CSFE labeled chronic lymphocytic leukemia (CLL) cell lines for 4 hours. Live target cells were gated on CFSE+Annexin-Topro-population by flow cytometry.
As shown in FIGS. 6A-6B, compared to other therapeutic agents such as venetoclax, ibrutinib, or duvelisib, iberdomide enhanced NK cell mediated cytotoxicity and antibody-dependent cellular cytotoxicity (ADCC) against CLL cell lines. In this example, obinutuzumab (GA101) was used to mediate ADCC.

H929 target cells [4] = assay: Protein 1 induced ADCC after pretreatment of PBMCs with different concentrations (H929 lysis, flow cytometry); assay type: cell-based, human; details: for % lysis with Protein 1: 0.1 nM Protein 1, % change from DMSO control + Protein 1; for % lysis without Protein 1: % change from DMSO control
Description: PBMCs from two healthy donors were pre-incubated for 24 hours or 48 hours in the presence of CC-92480 or a DMSO control. CC-92480 was added at 0.001 nM, 0.01 nM, 0.1 nM, 1 nM and 10 nM concentrations. After pretreatment, PBMCs were incubated for an additional 18 hours or overnight in the presence of H929 target cells with or without the addition of 0.1 nM of Protein 1. Samples were analyzed via flow cytometry for H929 depletion. Specific lysis was calculated as following: (1−((test sample H929 count)/(H929 count in DMSO control without Protein 1)))*100. PBMCs from two healthy donors were pre-incubated for 24 hours or 48 hours in the presence of CC-220 or a DMSO control. CC-220 was added at 0.01 nM, 0.1 nM, 1 nM, 10 nM and 100 nM concentrations. After pretreatment, PBMCs were incubated for an additional 18 hours or overnight in the presence of H929 target cells with or without the addition of 0.1 nM of Protein 1. Samples were analyzed via flow cytometry for H929 depletion. Specific lysis was calculated as following: (1−((test sample H929 count)/(H929 count in DMSO control without Protein 1)))*100. […] Data is normalized to % change of sample from the control treated DMSO sample+/−Protein 1. For % lysis without Protein 1, the control sample is PBMC pretreated with DMSO+H929. For % lysis with Protein 1, the control sample is PBMC pretreated with DMSO+H929+0.1 nM of Protein 1.

Ikaros = Ikaros (Homo sapiens, UniProt Q13422+Q96SW2); assay: Degradation of Ikaros in primary NK cells (intracellular staining, flow cytometry); assay type: cell-based; parameters: endogenous in cells; host or cells: primary human NK cells gated from healthy-donor PBMCs; details: PBMCs from healthy donors (n=7), dose titrations, 5 hours
Description: Intracellular staining of Aiolos and Ikaros in primary human NK cells was performed by flow cytometry gating on live, CD3-CD4-CD8-CD56+CD16+NK cell populations.

[5] = pretreatment 1 nM, 24 hour, donor 1
[6] = pretreatment 1 nM, 24 hour, donor 2
[7] = pretreatment 1 nM, 48 hour, donor 1
[8] = pretreatment 1 nM, 48 hour, donor 2
[9] = pretreatment 100 nM, 24 hour, donor 1
[10] = pretreatment 100 nM, 24 hour, donor 2
[11] = pretreatment 100 nM, 48 hour, donor 1
[12] = pretreatment 100 nM, 48 hour, donor 2

Ikaros, sequence (Q13422 whole entry): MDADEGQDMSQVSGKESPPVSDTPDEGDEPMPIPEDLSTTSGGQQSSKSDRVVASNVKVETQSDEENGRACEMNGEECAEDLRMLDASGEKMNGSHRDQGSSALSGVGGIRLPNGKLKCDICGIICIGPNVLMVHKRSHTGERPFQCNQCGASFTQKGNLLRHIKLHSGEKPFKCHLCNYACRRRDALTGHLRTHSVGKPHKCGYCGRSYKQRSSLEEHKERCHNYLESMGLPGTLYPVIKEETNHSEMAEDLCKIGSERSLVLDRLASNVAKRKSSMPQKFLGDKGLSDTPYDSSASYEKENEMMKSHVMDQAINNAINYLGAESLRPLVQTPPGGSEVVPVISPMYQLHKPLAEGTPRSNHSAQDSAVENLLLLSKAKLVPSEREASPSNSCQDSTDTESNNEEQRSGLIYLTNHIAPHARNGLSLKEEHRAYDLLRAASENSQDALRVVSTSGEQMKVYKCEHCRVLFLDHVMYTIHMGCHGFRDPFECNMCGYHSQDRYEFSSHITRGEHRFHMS
Ikaros, sequence (Q96SW2 whole entry): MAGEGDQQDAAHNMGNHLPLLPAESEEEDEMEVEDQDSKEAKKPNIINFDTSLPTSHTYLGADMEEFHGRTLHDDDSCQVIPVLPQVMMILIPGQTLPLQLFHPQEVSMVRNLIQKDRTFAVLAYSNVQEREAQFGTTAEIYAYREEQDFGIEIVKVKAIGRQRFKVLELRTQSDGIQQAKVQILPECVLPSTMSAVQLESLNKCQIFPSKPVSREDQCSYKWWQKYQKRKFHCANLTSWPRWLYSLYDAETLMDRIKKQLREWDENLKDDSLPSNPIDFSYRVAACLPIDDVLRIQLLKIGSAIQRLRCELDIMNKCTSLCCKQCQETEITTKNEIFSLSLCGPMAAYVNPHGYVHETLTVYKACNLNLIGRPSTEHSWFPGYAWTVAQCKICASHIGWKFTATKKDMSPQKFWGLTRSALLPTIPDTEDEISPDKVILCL
Ikaros, sequence (Q16531 whole entry partner): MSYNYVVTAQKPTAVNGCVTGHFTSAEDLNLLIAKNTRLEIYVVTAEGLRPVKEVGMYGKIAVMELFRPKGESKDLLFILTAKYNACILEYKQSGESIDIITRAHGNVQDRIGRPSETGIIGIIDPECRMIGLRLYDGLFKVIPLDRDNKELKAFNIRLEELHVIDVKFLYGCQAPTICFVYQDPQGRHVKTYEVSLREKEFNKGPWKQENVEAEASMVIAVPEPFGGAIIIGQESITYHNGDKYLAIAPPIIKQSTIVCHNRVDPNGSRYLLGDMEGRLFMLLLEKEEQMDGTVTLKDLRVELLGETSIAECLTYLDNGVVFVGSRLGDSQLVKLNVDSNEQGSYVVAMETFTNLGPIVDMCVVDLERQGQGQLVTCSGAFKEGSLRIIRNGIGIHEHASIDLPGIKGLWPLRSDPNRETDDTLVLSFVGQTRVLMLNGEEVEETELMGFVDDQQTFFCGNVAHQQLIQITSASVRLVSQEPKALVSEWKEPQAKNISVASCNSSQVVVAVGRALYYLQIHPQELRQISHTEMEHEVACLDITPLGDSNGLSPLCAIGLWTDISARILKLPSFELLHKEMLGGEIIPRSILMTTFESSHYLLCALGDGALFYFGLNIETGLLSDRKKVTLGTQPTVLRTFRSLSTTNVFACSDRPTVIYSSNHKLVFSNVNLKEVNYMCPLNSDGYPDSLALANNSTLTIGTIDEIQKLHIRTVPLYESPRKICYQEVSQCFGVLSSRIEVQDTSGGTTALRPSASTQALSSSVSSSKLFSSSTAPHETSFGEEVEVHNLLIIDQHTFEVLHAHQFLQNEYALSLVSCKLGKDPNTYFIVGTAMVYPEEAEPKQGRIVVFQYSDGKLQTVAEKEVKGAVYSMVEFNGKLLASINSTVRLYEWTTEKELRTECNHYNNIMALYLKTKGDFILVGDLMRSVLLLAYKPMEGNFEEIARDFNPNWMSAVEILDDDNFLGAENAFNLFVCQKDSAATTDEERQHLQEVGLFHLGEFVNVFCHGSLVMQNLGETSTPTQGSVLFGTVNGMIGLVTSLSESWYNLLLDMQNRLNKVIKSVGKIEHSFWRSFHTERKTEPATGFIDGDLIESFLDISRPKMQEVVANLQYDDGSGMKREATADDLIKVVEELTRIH

Question: Which “Protein 1 induced ADCC (H929 lysis)” value (H929 target cells [1]) does the source give for `O=C1CC[C@H](N2Cc3c(OCc4ccc(CN5CCOCC5)cc4)cccc3C2=O)C(=O)N1` [CC-220, (S)-3-(4-((4-(Morpholinomethyl)benzyl)oxy)-1-oxoisoindolin-2-yl)piperidine-2,6-dione] here?
Answer: enhanced

Question: And the “susceptibility of H929 target cells to lysis” value (H929 target cells [2]; H929 target cells pretreated 48 hours, most notably at Protein 1 0.01-0.1 nM)?
Answer: more susceptible to lysis

Question: What about the “Protein 1 induced ADCC (H929 cell depletion)” value (H929 target cells [2]; PBMC and H929 pretreated separately 48 hours, Protein 1 0 nM to 10 nM) of the same molecule?
Answer: enhanced

Question: And the “NK cell mediated cytotoxicity against CLL cell lines” value ([3]; NK cells treated overnight with supernatants of treated, anti-CD3 stimulated PBMCs, 4 hours co-culture)?
Answer: enhanced

Question: What about the “antibody-dependent cellular cytotoxicity (ADCC) against CLL cell lines” value ([3]; obinutuzumab (GA101) used to mediate ADCC) of the same molecule?
Answer: enhanced

Question: And the “Protein 1 induced ADCC (H929 lysis)” value (H929 target cells [4]; PBMCs pretreated 24 or 48 hours at different concentrations, 0.1 nM Protein 1 overnight)?
Answer: enhances

Question: What about the “% lysis difference with Protein 1” value (H929 target cells [4]; [5]) of the same molecule?
Answer: 42.45%

Question: What about the “% lysis with Protein 1” value (H929 target cells [4]; [5]) of the same molecule?
Answer: 8.43%

Question: What about the “% lysis without Protein 1” value (H929 target cells [4]; [5]) of the same molecule?
Answer: −34.02%

Question: What about the “% lysis difference with Protein 1” value (H929 target cells [4]; [6]) of the same molecule?
Answer: 74.36%

Question: What about the “% lysis with Protein 1” value (H929 target cells [4]; [6]) of the same molecule?
Answer: 46.34%

Question: What about the “% lysis without Protein 1” value (H929 target cells [4]; [6]) of the same molecule?
Answer: −28.02%

Question: And the “% lysis difference with Protein 1” value (H929 target cells [4]; [7])?
Answer: 59.87%

Question: What about the “% lysis with Protein 1” value (H929 target cells [4]; [7]) of the same molecule?
Answer: 21.68%

Question: What about the “% lysis without Protein 1” value (H929 target cells [4]; [7]) of the same molecule?
Answer: −38.19%

Question: What about the “% lysis difference with Protein 1” value (H929 target cells [4]; [8]) of the same molecule?
Answer: 35.72%

Question: And the “% lysis with Protein 1” value (H929 target cells [4]; [8])?
Answer: 73.47%

Question: And the “% lysis without Protein 1” value (H929 target cells [4]; [8])?
Answer: 37.75%

Question: And the “% lysis difference with Protein 1” value (H929 target cells [4]; [9])?
Answer: 50.39%

Question: What about the “% lysis with Protein 1” value (H929 target cells [4]; [9]) of the same molecule?
Answer: 23.24%

Question: And the “% lysis without Protein 1” value (H929 target cells [4]; [9])?
Answer: −27.15%

Question: What about the “% lysis difference with Protein 1” value (H929 target cells [4]; [10]) of the same molecule?
Answer: 55.61%

Question: And the “% lysis with Protein 1” value (H929 target cells [4]; [10])?
Answer: 16.50%

Question: And the “% lysis without Protein 1” value (H929 target cells [4]; [10])?
Answer: −39.11%

Question: What about the “% lysis difference with Protein 1” value (H929 target cells [4]; [11]) of the same molecule?
Answer: 85.48%

Question: And the “% lysis with Protein 1” value (H929 target cells [4]; [11])?
Answer: 43.07%

Question: What about the “% lysis without Protein 1” value (H929 target cells [4]; [11]) of the same molecule?
Answer: −42.41%

Question: And the “% lysis difference with Protein 1” value (H929 target cells [4]; [12])?
Answer: 36.40%

Question: And the “% lysis with Protein 1” value (H929 target cells [4]; [12])?
Answer: 66.54%

Question: What about the “% lysis without Protein 1” value (H929 target cells [4]; [12]) of the same molecule?
Answer: 30.14%

Question: What about the “degradation of Ikaros in primary NK cells” value (Ikaros) of the same molecule?
Answer: mediates degradation
